Some test systems named below: CCRF-CEM; COLO 205; EKVX; HOP-62; HOP-92; LOX IMVI; MCF7; Malme-3M; NCI-H226; NCI-H23; OVCAR-3; OVCAR-8; SF-268; UACC-62; UO-31; 786-0; ACHN; M14; MDA-MB-435; TK-10.
Test in all cases: growth of human tumour cells (NCI), 48 h

The record followed here is ChEMBL document CHEMBL1201862, “PubChem BioAssay data set” (2004).

Several values for one entry are separate records, joined by “and”; a condition that tells them apart may be missing. Equal entries are not always repeated.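 Protocol summary: plate cells (96-well), add compound at 5 concentrations, incubate 48 h, interpolate endpoints linearly. GI50 is the concentration that inhibits growth by half.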 Activity calls are given as the source filed them. No stated cut-off is given here; in the data, active = GI50 up to about 1.1 µM and inactive = higher. Non-standard residues stand in square brackets, D forms with d. Residues, ends and D or L forms follow the SMILES beside them.

With `CC1NC(=O)CC(c2ccccc2)N(N=O)C1c1ccccc1` (configuration not stated), the GI50 with CCRF-CEM is 23.8 µM (inactive); in the assay with COLO 205, 26.6 µM (inactive); with EKVX, > 70.6 µM (inactive); in the assay with HOP-62, 28.8 µM (inactive); with HOP-92 it was 16.9 µM (inactive); with LOX IMVI, 37.9 µM (inactive). The GI50 in the assay with MCF7 is 44.3 µM (inactive); in the assay on Malme-3M, 52.5 µM (inactive); in the assay on NCI-H226, 58.5 µM (inactive); in the assay with NCI-H23 it was 36.2 µM (inactive); in the assay with OVCAR-3, 33.2 µM (inactive); with OVCAR-8, 34 µM (inactive). In addition, the GI50 with SF-268 was 31.8 µM (inactive); in the assay with UACC-62 it was 35.4 µM (inactive); in the assay on UO-31, 50.8 µM (inactive).

Take `Cc1cc(S(=O)(=O)[N-]/C(=N/S(=O)(=O)c2ccc(Cl)cc2)[n+]2ccc(N(C)C)cc2)c(S)cc1Cl`: the GI50 with 786-0 is > 100 µM (inactive); in the assay on ACHN, > 100 µM (inactive); in the assay with CCRF-CEM, 46.2 µM (inactive); in the assay with EKVX, > 100 µM (inactive); in the assay on HOP-62 it was 43.5 µM (inactive); in the assay with LOX IMVI, > 100 µM (inactive). Besides, the GI50 in the assay with M14 was 35.3 µM (inactive); with MCF7 it was 47.9 µM (inactive); with MDA-MB-435, > 100 µM (inactive); with NCI-H226, 33.8 µM (inactive); with NCI-H23 it was > 100 µM (inactive); in the assay on OVCAR-3 it was 56.1 µM (inactive). In addition, the GI50 is > 100 µM (inactive) in the assay with OVCAR-8, 89.9 µM (inactive) in the assay on SF-268, 49.2 µM (inactive) in the assay with TK-10 and 79.4 µM (inactive) in the assay with UO-31.

Regarding `O=C(N/N=C\c1cccc(O)c1)c1ccncc1`, the GI50 in the assay with 786-0, in the assay with ACHN, with EKVX, in the assay with HOP-62, with HOP-92 and with LOX IMVI was > 100 µM (inactive) each time. Further, the GI50 with M14, with MDA-MB-435, in the assay with Malme-3M, in the assay on NCI-H23, in the assay with OVCAR-3 and in the assay with OVCAR-8 was > 100 µM (inactive) throughout. Besides, the GI50 with SF-268, in the assay with TK-10, with UACC-62 and in the assay on UO-31 was > 100 µM (inactive) in each case.

As to `CC(C)C[C@H](NC(=O)[C@H](CC(C)C)NC(=O)[C@@H](Cc1c[nH]c2ccccc12)NC(=O)[C@H](Cc1ccccc1)NC(=O)[C@@H](Cc1c[nH]c2ccccc12)NC(=O)[C@H](CCC(N)=O)NC(=O)[C@H](CCC(N)=O)NC(=O)[C@H]1CCCN1C(=O)[C@@H](N)CCCCN)C(N)=O` (H-K[dP]QQ[dW]F[dW]LL-NH2), the GI50 in the assay on CCRF-CEM, in the assay on COLO 205, in the assay with EKVX, in the assay with HOP-62, with HOP-92 and in the assay with LOX IMVI was > 100 µM (inactive) in each case. For the same compound, the GI50 in the assay with MCF7, in the assay with Malme-3M, in the assay on NCI-H226, in the assay on NCI-H23, with OVCAR-3 and with OVCAR-8 was > 100 µM (inactive) throughout. In addition, the GI50 in the assay with SF-268, with UACC-62 and in the assay on UO-31 was > 100 µM (inactive) each time.

As for `c1csc(C(NC2=NCCO2)C2CC2)c1` (configuration not stated), the GI50 is > 100 µM (inactive) in the assay on ACHN; > 100 µM (inactive) in the assay with COLO 205; > 100 µM (inactive) in the assay with EKVX; > 100 µM (inactive) with HOP-62; 93.5 µM (inactive) with HOP-92; > 100 µM (inactive) with LOX IMVI. Further, the GI50 in the assay with MCF7, in the assay with NCI-H226, in the assay with NCI-H23, in the assay on OVCAR-8, in the assay with UACC-62 and in the assay on UO-31 was > 100 µM (inactive) in each case.

`O=C1CCSSCCC(=O)NCCN1`: the GI50 in the assay on 786-0, in the assay on ACHN, in the assay on CCRF-CEM, in the assay with COLO 205, with EKVX and in the assay on HOP-62 was > 100 µM (inactive) each time. The GI50 in the assay with HOP-92, in the assay on LOX IMVI, in the assay with M14, in the assay with MDA-MB-435, in the assay with Malme-3M and in the assay with NCI-H226 was > 100 µM (inactive) in each case. Further, the GI50 with NCI-H23, in the assay on OVCAR-3, in the assay with OVCAR-8, in the assay on SF-268, in the assay on TK-10 and with UACC-62 was > 100 µM (inactive) in each case. Moreover, in the assay with UO-31, the GI50 was > 100 µM (inactive).

As to `CN1Cc2c(nc(-c3ccccc3)c[n+]2[O-])N(C)C1`, the GI50 in the assay with 786-0, in the assay with ACHN, in the assay with CCRF-CEM, in the assay on COLO 205, in the assay on EKVX and in the assay on HOP-62 was > 100 µM (inactive) in each case. The GI50 in the assay with HOP-92, in the assay with LOX IMVI, with M14, with Malme-3M, in the assay on NCI-H226 and in the assay on NCI-H23 was > 100 µM (inactive) throughout. Besides, the GI50 in the assay on OVCAR-3, with OVCAR-8, in the assay with SF-268, in the assay on TK-10, in the assay with UACC-62 and with UO-31 was > 100 µM (inactive) in each case.

For the compound `CC(=O)c1c(-c2cccc3ccccc23)c(C#N)c(=S)n(C2OC(CO)C(O)C(O)C2O)c1C` (configuration not stated), the GI50 in the assay on 786-0 was > 100 µM (inactive); in the assay with ACHN, > 100 µM (inactive); in the assay with CCRF-CEM it was 56 µM (inactive) and 51.4 µM (inactive); in the assay on COLO 205, > 100 µM (inactive); in the assay with EKVX, 11.1 µM (inactive); in the assay with HOP-62 it was 54.8 µM (inactive). Moreover, the GI50 is 56.8 µM (inactive) with HOP-92; > 100 µM (inactive) in the assay on LOX IMVI; > 100 µM (inactive) in the assay with MCF7; > 100 µM (inactive) with NCI-H226; > 100 µM (inactive) and 52.2 µM (inactive) in the assay on NCI-H23; > 100 µM (inactive) in the assay on OVCAR-3. Also, the GI50 with OVCAR-8 is > 100 µM (inactive); with SF-268 it was > 100 µM (inactive); in the assay on TK-10, > 100 µM (inactive); in the assay with UACC-62, 64.7 µM (inactive); with UO-31, 87.5 µM (inactive).

Turning to `CC1=CC(C)(C)N=C2SC(c3ccc(N)cc3)=NN12`, the GI50 in the assay with 786-0 was 57.1 µM (inactive); in the assay with ACHN, 69.3 µM (inactive); in the assay on CCRF-CEM, 27.9 µM (inactive); in the assay on COLO 205, 42.8 µM (inactive); in the assay with EKVX, 24.9 µM (inactive); in the assay on HOP-62, > 100 µM (inactive). Moreover, the GI50 with HOP-92 was 51.8 µM (inactive); with LOX IMVI it was > 58.5 µM (inactive); in the assay with M14, > 83.8 µM (inactive); in the assay with Malme-3M, > 100 µM (inactive); in the assay on NCI-H226, > 94.6 µM (inactive); with NCI-H23 it was > 81.1 µM (inactive). For the same compound, the GI50 with OVCAR-3 was 58.2 µM (inactive); in the assay with OVCAR-8, 55.7 µM (inactive); in the assay with SF-268, > 67.6 µM (inactive); with TK-10 it was > 100 µM (inactive); in the assay on UACC-62, 44.6 µM (inactive); with UO-31 it was 28 µM (inactive).

For the compound `CC(=O)N/C=C/c1cc(O)ccc1O`, the GI50 with 786-0 is 33.2 µM (inactive); with ACHN, 18.9 µM (inactive); in the assay with CCRF-CEM, 25.3 µM (inactive); in the assay on COLO 205, 29.1 µM (inactive); with EKVX, 45.2 µM (inactive); in the assay on HOP-62 it was > 41 µM (inactive). Besides, the GI50 was 18.7 µM (inactive) with HOP-92; 30.1 µM (inactive) in the assay with LOX IMVI; 33.3 µM (inactive) in the assay with M14; > 44.6 µM (inactive) in the assay with Malme-3M; 46.3 µM (inactive) with NCI-H226; 34.4 µM (inactive) with NCI-H23. Moreover, the GI50 with OVCAR-3 was 16 µM (inactive); in the assay on OVCAR-8 it was 45.7 µM (inactive); with SF-268 it was 31.8 µM (inactive); in the assay with TK-10, 39.2 µM (inactive); in the assay on UACC-62 it was 32.2 µM (inactive); in the assay with UO-31, 23.4 µM (inactive).

Turning to `CN(C)CCNc1c2ccccc2c2c3c(cccc13)C(=O)N(CCN(C)C)C2=O`, the GI50 in the assay with CCRF-CEM is 0.111 µM (active); with COLO 205, 0.0755 µM (active); with EKVX, 0.332 µM (active); in the assay on HOP-62, 1.67 µM (inactive); with HOP-92 it was 0.138 µM (active); with LOX IMVI it was 0.071 µM (active). Further, the GI50 in the assay with MCF7 was 0.0416 µM (active); in the assay on Malme-3M, 0.348 µM (active); with NCI-H226 it was 1.82 µM (inactive); in the assay with NCI-H23, 0.0904 µM (active); in the assay with OVCAR-3, 0.112 µM (active); in the assay on OVCAR-8, 0.129 µM (active). The GI50 with SF-268 was 0.22 µM (active); in the assay on UACC-62, 0.308 µM (active); in the assay with UO-31 it was 1.61 µM (inactive).

As to `O=C(CCN(C(=O)O)S(=O)(=O)c1ccc(NC(=O)c2ccccc2)cc1)NC1CCCCC1`, the GI50 in the assay on 786-0 is 12.6 µM (inactive); with ACHN, > 100 µM (inactive); in the assay on CCRF-CEM, 27.6 µM (inactive); with COLO 205, 47.4 µM (inactive); with EKVX, > 100 µM (inactive); in the assay on HOP-62, > 100 µM (inactive). Also, the GI50 in the assay on HOP-92, in the assay with LOX IMVI, in the assay on M14, in the assay with Malme-3M, in the assay with NCI-H226 and in the assay on NCI-H23 was > 100 µM (inactive) throughout. Moreover, the GI50 with OVCAR-3, in the assay on OVCAR-8, in the assay with SF-268, in the assay on TK-10, in the assay with UACC-62 and in the assay on UO-31 was > 100 µM (inactive) in each case.
